{"source": "patent US8178688B2", "about": "“Benzamidine derivatives, process for the preparation thereof and pharmaceutical composition comprising the same” (Dong Wha Pharmaceutical Co., Ltd., priority 2004, dated 2012)", "key": {"cells": {"tested_on": "cells", "assay": "Cytotoxicity test (MTT)", "assay_type": "cell-based", "conditions": "10^−6M, 72 hrs, compared with the control group", "method_in_brief": "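Benzamidine derivatives were checked for cytotoxicity with an MTT assay. Test substances were diluted in a suitable solvent to 10^−2M. Cells were seeded at 1×10^4 cell/100 μL per well in 96-well microplates and grown for 72 hrs. During the final 4 hrs, 25 μL of MTT (2 mg/mL in PBS) was added. Plates were then centrifuged, the medium removed, formazan dissolved in 100 μL DMSO, and absorbance read at 540 nm.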"}, "osteoblast": {"tested_on": "osteoblast", "assay": "Effect on bone formation (osteoblast nodule mineralization, Alizarin red S)", "assay_type": "cell-based, ICR mice", "conditions": "calvarial osteoblast in osteogenic differentiation medium", "procedure": "The osteoblast, treated in this experiment, was prepared from the osteoblast as prepared in the above.\nThe osteoblast, isolated from sequential enzymatic treatment of calvariae from neonated ICR mice, was cultured in α-MEM medium containing 10% FBS for 4˜5 days. The osteoblast was also cultured for 24 hr after seeding the cells on a 12 well plate (10^5 cell/well), and medium was exchanged with the osteogenic differentiation medium containing 10 mM β-glycerophosphate and 50 μg/ml ascorbic acid.\nThe test substances at the concentration of 0.1 uM and 0.1 nM were added to the above medium for evaluating the effect promoting bone formation. The differentiation medium containing the test substances was exchanged every 3 or 4 days for 14 to 21 days until confirming the nodule mineralization.\nThe cell was rinsed twice with distilled water, and fixed by the 10% formalin solutions for 30 minutes. Alizarin red S and Von-kossa Solution were treated on the plate for measuring deposited calcium and phosphate in cell matrix, and the activity of the test substances on the bone formation was analyzed by determining stained area.\nAdditionally, for the purpose of estimating quantitative Arizarin red S in cell matrix, stained Arizarin red S was extracted by treating 10 mM sodium phosphate solution (pH 7.0), containing 10% cetylpyridinium chloride, for 15˜30 minutes in the shaking incubator, and then the amount of the deposited calcium was estimated by calculating the absorbance of the extracted Arizarin red S at 564 nm. […]"}}}
{"smiles": "Cc1sc(-c2cccnc2)nc1-c1ccc(OCCCCCOc2ccc(C(=N)NO)cc2)cc1", "note": "[Example 13, N-hydroxy-4-(5-[4-(5-methyl-2-pyridin-3-yl-1,3-thiazol-4-yl)phenoxy]pentoxy)-benzamidine]", "values": [{"measurement": "melting point", "value": "138 to 150", "unit": "°C"}]}
{"smiles": "CC(C)c1nc(-c2ccc(OCCCCCOc3ccc(C(=N)NO)cc3)cc2)c(CC2CCCC2)s1", "note": "[Example 47, N-hydroxy-4-(5-[4-(5-cyclopentylnnethyl-2-isopropyl-1,3-thiazol-4-yl)phenoxy]pentoxy)-benzamidine]", "values": [{"measurement": "Survival rates of the cells", "setting": "cells; MC3T3-E1 cells", "value": 54.2, "unit": "%"}, {"measurement": "Survival rates of the cells", "setting": "cells; ST2 cells", "value": 24.0, "unit": "%"}, {"measurement": "bone forming activity (%)", "setting": "osteoblast; 0.1 nM", "value": 9.4, "unit": "%"}, {"measurement": "bone forming activity (%)", "setting": "osteoblast; 0.1 μM", "value": 11.31, "unit": "%"}]}
{"smiles": "CCCN(CCC)c1nc(-c2ccc(OCCCCCOc3ccc(C(=N)NO)cc3)cc2)c(CC)s1", "note": "[Example 138, N-hydroxy-4-(5-[4-(2-dipropylamino-5-ethyl-1,3-thiazol-4-yl)phenoxy]pentoxy)-benzamidine]", "values": [{"measurement": "bone forming activity (%)", "setting": "osteoblast; 0.1 nM", "value": 8.81, "unit": "%"}, {"measurement": "bone forming activity (%)", "setting": "osteoblast; 0.1 μM", "value": 6.32, "unit": "%"}]}
